For assay [1], the system named is 3T3-L1 pre-adipocytes, mature adipocytes and murine skeletal muscle cells. In words: In vitro screening of small molecules for cellular glucose uptake. As to conditions: 20 μM/well, 24 h; for greater glucose uptake compared to control: other replications not presented; for increase in cellular glucose: tested 3 or more times in different cell types. Type of assay: cell-based. As for the experimental part:
Next, over time, Applicants tested cellular glucose uptake with 41 different E4orf1 analog small molecules in 3T3-L1 pre-adipocytes, mature adipocytes and murine skeletal muscle cells. Cells were exposed to 20 μM/well of E4orf1 analogs. Glucose uptake by cells was determined 24 h later. Insulin and human adenovirus Ad36 were used as positive controls for glucose uptake. The * indicates statistical significance after Bonferroni correction for multiple comparisons.
Applicants conducted glucose uptake assays for compounds several separate times. BN #3 and BT #141 had about 70% greater glucose uptake compared to control in other replications not presented herein.

The test system of assay [2] is C57BL/6J male mice on a 60% kcal high-fat diet. The assay can be described thus: Glucose tolerance test (GTT) in high-fat diet fed mice. In kind it is in vivo. As to conditions: daily injection of 4 mg/kg, GTT 7 and/or 14 days post-treatment, vs DMSO control mice. The protocol: (§1) To determine improvement in glucose disposal in vivo, 10 wk old C57BL/6J male mice (Jax Laboratories) on a 60% kcal high-fat diet (Research diets, Inc.) since 6 weeks of age were divided into weight-matched groups. In individual experiments, mice were treated with daily injection of 4 mg/kg of respective small molecules (BN #3, BT #141, BT #143 and BT #181) or DMSO alone as control. Improvement in glycemic control was determined by glucose tolerance test (GTT) performed at baseline (prior to treatment), 7 days and/or 14 days post-treatment. Insulin-independent action of the small molecules was also measured by collecting blood during GTT and quantifying serum insulin by enzyme-linked immunosorbent assay (ELISA).

The test system is the same in assay [3]. The assay can be described thus: Serum insulin by ELISA during GTT in high-fat diet fed mice. Type of assay: in vivo. To be noted: daily injection of 4 mg/kg, vs DMSO control mice. The protocol: as §1
(ELISA stands for enzyme-linked immunosorbent assay.)

A further assay has as its system 3T3L1 preadipocytes. The assay can be described thus: Glucose uptake in 3T3L1 preadipocytes treated with E4orf1 analogs. As to conditions: analogs 2 μl/ml of media, 24 hr in dark, vs DMSO, repeated 3 times. Type of assay: cell-based. The protocol:
FIG. 3 illustrates that selected E4orf1 chemical analogs increase glucose uptake. 3T3L1 preadipocytes were treated with dimethyl sulfoxide (DMSO) or insulin or treated with analogs BT324, BT325, BT326, BT327, BT328, and BT329. The treatments were compared using one way analysis of variance (ANOVA) and post hoc Tukey's test. Groups sharing same letters are not statistically significant.
(§2) 3T3L1 preadipocytes (passage number 8 below) were used to treat with analogs. As control, cells were treated with equal volumes of DMSO. As positive control, cells were treated with 100 nM insulin. Cells at 70% confluency were treated with analogs (2 μl/ml of media) in dark for 24 hr. Post 24 hr treatment, cells were used either to determine glucose uptake or to obtain cell lysates for determining pAKT abundance by Western blot analysis.

For the next assay, the system named is pAkt/Akt. In words: Western blot for pAkt/Akt in cell lysates of treated 3T3L1 preadipocytes. In kind it is cell-based. To be noted: 24 hr incubation, vs DMSO. The protocol: FIG. 4 illustrates that the E4orf1 chemical analogs that increase glucose uptake also increase pAkt levels—the underlying mechanism for increasing cellular glucose uptake. 3T3L1 preadipocytes were treated with DMSO or insulin or with analogs BT324, BT325, BT327, or BT329. Post 24 hr incubation in the dark, cell lysates were collected and 20 μg of protein was loaded and probed for pAkt/Akt. Band intensities were analyzed using Image J software. Groups sharing same letters are not statistically significant.
as §2

Entries after “also recorded” stand apart in the source; their conditions may differ.

With `Cc1cc(C(C#N)Nc2ccc(B3OC(C)(C)C(C)(C)O3)cc2)no1` (stereo not shown) [BN #3], in assay [1], the “greater glucose uptake compared to control” value is on record as “about 70%” and the “increase in cellular glucose” value is listed as “consistently significant increase in cellular glucose”. Moreover, the “glucose clearance / glycemic control (GTT)” value in assay [2] (4 mg/kg) was “improved glycemic control; also recorded: improved glucose disposal”. The insulin secretion entry in assay [3] is recorded as “lower insulin secretion”.

As for `COC(=O)c1cc2cc(Cl)ccc2oc1=O` [BT324], the glucose uptake result in the assay with 3T3L1 preadipocytes was “significantly increased glucose uptake”. For the same molecule, the pAkt/Akt result in the assay with pAkt/Akt is on record as “significant increase in pAkt/Akt”.

With `O=C(O)c1cc2cc(Cl)ccc2oc1=O` [BT325], the glucose uptake entry in the assay on 3T3L1 preadipocytes is “significantly increased glucose uptake”. Further, the pAkt/Akt entry in the assay on pAkt/Akt is listed as “significant increase in pAkt/Akt”.

As to `O=C(O)c1cc2cc(Cl)ccc2[nH]c1=O` [BT327], the glucose uptake entry with 3T3L1 preadipocytes is recorded as “significantly increased glucose uptake”. Further, the pAkt/Akt entry in the assay on pAkt/Akt was “significant increase in pAkt/Akt”.

For the molecule `C#Cc1ccc(/C(N)=N/O)cc1` [BT329], in the assay on 3T3L1 preadipocytes, the glucose uptake entry is “significantly increased glucose uptake”. Also, in the assay with pAkt/Akt, the pAkt/Akt entry is recorded as “significant increase in pAkt/Akt”.

Consider `CC1(C)OB(c2ccc(C(C#N)Nc3ccc(O)cc3)cc2)OC1(C)C` (stereo not shown) [BT #141], for which, in assay [1], the “greater glucose uptake compared to control” value is listed as “about 70%” and the “increase in cellular glucose” value was “consistently significant increase in cellular glucose”. Moreover, the “glucose clearance / glycemic control (GTT)” value in assay [2] (4 mg/kg) is listed as “improved glycemic control”. The “glucose clearance / glycemic control (GTT)” value in assay [2] (listed as BN #141, 4 mg/kg) was “improved glucose disposal”.

For the origin of these results see US20220071953A1, “Small Molecule Analogs Of The Protein E4ORF1 In The Treatment And Prevention Of Metabolic Disorders” (Texas Tech University System, priority 2019, published 2022).
